Results reported in ChEMBL document CHEMBL1201862, “PubChem BioAssay data set” (2004).
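Cultured in 96-well plates, cells were exposed to test compound for 48 hours across five concentrations. At the GI50, growth is halved.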 The source made the active and inactive calls. Cut-off read from the data, not from the text of the source: active = GI50 up to about 1.1 µM and inactive = higher.

Columns and labels:
Assay in all cases: inhibition of tumour cell growth, NCI panel, 48 h
M19-MEL = test system: M19-MEL
XF498 = test system: XF498
SNB-78 = test system: SNB-78
DLD-1 = test system: DLD-1
DMS-273 = test system: DMS-273
HOP-18 = test system: HOP-18
LXFL 529 = test system: LXFL 529
Hs-578T = test system: Hs-578T
RXF 631 = test system: RXF 631

## c1ccc2cc3c(cc2c1)OP1(Oc2cccc4cccnc24)(O3)Oc2cc3ccccc3cc2O1
M19-MEL
  GI50: 9.89 µM (inactive)
XF498
  GI50: 3.71 µM (inactive)
SNB-78
  GI50: 26.4 µM (inactive)
DLD-1
  GI50: 4.2 µM (inactive)
DMS-273
  GI50: 3.49 µM (inactive)
HOP-18
  GI50: 9.48 µM (inactive)

## CCOC(=O)CC1=N/C(=N/C(=N)N[N+](=O)[O-])SC1
M19-MEL
  GI50: > 100 µM (inactive)
SNB-78
  GI50: > 100 µM (inactive)
DLD-1
  GI50: > 100 µM (inactive)
DMS-273
  GI50: > 100 µM (inactive)
LXFL 529
  GI50: > 100 µM (inactive)
HOP-18
  GI50: > 100 µM (inactive)

## Cc1ccc(C(=O)C(C2=Nc3nnc(N)n3C2=O)C2=Nc3nnc(N)n3C2=O)cc1
M19-MEL
  GI50: > 100 µM (inactive)
XF498
  GI50: > 100 µM (inactive)
SNB-78
  GI50: > 100 µM (inactive)
DLD-1
  GI50: > 100 µM (inactive)
DMS-273
  GI50: > 100 µM (inactive)
LXFL 529
  GI50: > 100 µM (inactive)

## CC1SC2=NC3=C(c4ccccc4C3=O)C(c3ccc(Br)cc3)N2C1=O (stereo unspecified)
M19-MEL
  GI50: 56.9 µM (inactive)
XF498
  GI50: 43.8 µM (inactive)
DLD-1
  GI50: 76 µM (inactive)
DMS-273
  GI50: > 100 µM (inactive)
LXFL 529
  GI50: 53 µM (inactive)

## CC1(Br)CC2OC3(Br)C=CC(C)(O)C2(CC1=O)C3(C)C (stereo unspecified)
XF498
  GI50: > 90.4 µM (inactive)
SNB-78
  GI50: > 100 µM (inactive)
DLD-1
  GI50: 98.2 µM (inactive)
DMS-273
  GI50: > 100 µM (inactive)
LXFL 529
  GI50: 98.9 µM (inactive)
HOP-18
  GI50: > 100 µM (inactive)

## CCc1cccc(C)c1NC(=O)C(=O)Cc1nc2ccccc2o1
M19-MEL
  GI50: > 100 µM (inactive)
XF498
  GI50: > 100 µM (inactive)
SNB-78
  GI50: > 100 µM (inactive)
DLD-1
  GI50: > 100 µM (inactive)
LXFL 529
  GI50: > 100 µM (inactive)
HOP-18
  GI50: > 100 µM (inactive)

## Cc1nc2ccccc2c(=O)n1/N=C(\N=N\c1cc(Cl)ccc1Cl)c1ccccc1
M19-MEL
  GI50: 77.4 µM (inactive)
Hs-578T
  GI50: 74 µM (inactive)
XF498
  GI50: 61.2 µM (inactive)
RXF 631
  GI50: > 10 µM (inactive)
DLD-1
  GI50: 45.6 µM (inactive)
DMS-273
  GI50: 43.3 µM (inactive)
LXFL 529
  GI50: 36.5 µM (inactive)
HOP-18
  GI50: 14.3 µM (inactive)

## O=C1C2C(C(=O)N1O)N(Cc1ccccc1)C(=O)N2Cc1ccccc1 (stereo unspecified)
M19-MEL
  GI50: > 100 µM (inactive)
XF498
  GI50: > 100 µM (inactive)
SNB-78
  GI50: > 100 µM (inactive)
DLD-1
  GI50: > 100 µM (inactive)
LXFL 529
  GI50: > 100 µM (inactive)

## O=C1O[C@@H](c2ccccc2)C[C@H]1CN1CCOCC1
XF498
  GI50: 81.8 µM (inactive)
SNB-78
  GI50: > 100 µM (inactive)
RXF 631
  GI50: > 100 µM (inactive)
DLD-1
  GI50: > 100 µM (inactive)
LXFL 529
  GI50: > 100 µM (inactive)

## CCC(/C=C/c1ccccc1)=N\Nc1ccc(Cl)c(Cl)c1
Hs-578T
  GI50: 55.3 µM (inactive)

## Cc1ccc(C(=O)N/N=C(\N=N\c2ccc([N+](=O)[O-])cc2)c2ccc(N(CCC#N)CCC#N)cc2C)cc1
Hs-578T
  GI50: 50.1 µM (inactive)

## OC12CCCCCC1(N1CCOCC1)c1ccccc12 (stereo unspecified)
M19-MEL
  GI50: > 100 µM (inactive)
SNB-78
  GI50: > 100 µM (inactive)
DMS-273
  GI50: > 100 µM (inactive)
LXFL 529
  GI50: > 100 µM (inactive)
HOP-18
  GI50: > 100 µM (inactive)

## O=C(Cc1ccccc1)NN1C(=O)C(Cl)C1c1cc(Br)cc(Br)c1O (stereo unspecified)
M19-MEL
  GI50: 15.8 µM (inactive)
XF498
  GI50: 19.8 µM (inactive)
SNB-78
  GI50: 24.4 µM (inactive)
DLD-1
  GI50: 8.81 µM (inactive)
DMS-273
  GI50: 12.5 µM (inactive)
LXFL 529
  GI50: 13.5 µM (inactive)
HOP-18
  GI50: 7.83 µM (inactive)

## C#CC1(O)c2ccccc2C(=O)c2ccccc21
M19-MEL
  GI50: > 100 µM (inactive)
XF498
  GI50: 84.7 µM (inactive)
SNB-78
  GI50: 35.9 µM (inactive)
DMS-273
  GI50: > 100 µM (inactive)
LXFL 529
  GI50: > 100 µM (inactive)
HOP-18
  GI50: > 100 µM (inactive)

## CC(C)C(=O)Nc1nc2c(ncn2C2OC(CO)C(O)C2O)c(=O)[nH]1 (stereo unspecified)
M19-MEL
  GI50: > 100 µM (inactive)
XF498
  GI50: > 100 µM (inactive)
SNB-78
  GI50: > 100 µM (inactive)
RXF 631
  GI50: > 100 µM (inactive)
DLD-1
  GI50: > 100 µM (inactive)
DMS-273
  GI50: > 100 µM (inactive)
LXFL 529
  GI50: > 100 µM (inactive)
HOP-18
  GI50: > 100 µM (inactive)

## N#CCCCCCOCCOCCOCCOCCOCCCCCC#N
M19-MEL
  GI50: > 100 µM (inactive)
RXF 631
  GI50: > 100 µM (inactive)
DLD-1
  GI50: > 100 µM (inactive)
DMS-273
  GI50: > 100 µM (inactive)
LXFL 529
  GI50: > 100 µM (inactive)
HOP-18
  GI50: > 100 µM (inactive)

## C/C(CC(=O)Nc1cccc(Cl)c1C)=N\NC(=O)c1ccncc1
M19-MEL
  GI50: > 100 µM (inactive)
XF498
  GI50: > 100 µM (inactive)
SNB-78
  GI50: > 100 µM (inactive)
DLD-1
  GI50: > 100 µM (inactive)
DMS-273
  GI50: > 100 µM (inactive)
LXFL 529
  GI50: > 100 µM (inactive)

## C/C(=C\C(=O)Nc1ccc2[nH]nnc2c1)Nc1ccc2[nH]nnc2c1
M19-MEL
  GI50: > 100 µM (inactive)
SNB-78
  GI50: > 100 µM (inactive)
RXF 631
  GI50: > 100 µM (inactive)
DLD-1
  GI50: > 100 µM (inactive)
LXFL 529
  GI50: > 100 µM (inactive)
HOP-18
  GI50: > 100 µM (inactive)

## BrC1=CN2C[n+]3cc(Br)c4ccccc4c3N=C2c2ccccc21
Hs-578T
  GI50: 22.1 µM (inactive)

## CCOC(=O)C1(C(=O)OCC)OC(=O)NC2=C1CCCC2
M19-MEL
  GI50: > 100 µM (inactive)
XF498
  GI50: > 100 µM (inactive)
SNB-78
  GI50: > 100 µM (inactive)
DLD-1
  GI50: > 100 µM (inactive)
DMS-273
  GI50: > 100 µM (inactive)
LXFL 529
  GI50: > 100 µM (inactive)
HOP-18
  GI50: 19.5 µM (inactive)

## CSc1nc(-c2ccccc2)c2c(n1)-c1ccccc1CC2
M19-MEL
  GI50: > 100 µM (inactive)
XF498
  GI50: > 100 µM (inactive)
RXF 631
  GI50: > 100 µM (inactive)
DLD-1
  GI50: > 100 µM (inactive)
LXFL 529
  GI50: > 100 µM (inactive)
HOP-18
  GI50: > 100 µM (inactive)

## O=[N+]([O-])c1ccc(-n2nnc(C3=NCCCN3)c2-c2ccc(Cl)cc2)cc1
M19-MEL
  GI50: 69.5 µM (inactive)
XF498
  GI50: > 100 µM (inactive)
SNB-78
  GI50: > 100 µM (inactive)
DLD-1
  GI50: > 100 µM (inactive)
DMS-273
  GI50: > 100 µM (inactive)
LXFL 529
  GI50: > 100 µM (inactive)
HOP-18
  GI50: > 100 µM (inactive)

## N#Cc1c(Cl)c2cccnc2n2c1nc1ccccc12
Hs-578T
  GI50: 2.79 µM (inactive)

## O=Cc1ccc2c(c1-c1c(C=O)ccc3c1OCO3)OCO2
M19-MEL
  GI50: > 100 µM (inactive)
SNB-78
  GI50: > 100 µM (inactive)
DLD-1
  GI50: > 100 µM (inactive)
DMS-273
  GI50: > 100 µM (inactive)
LXFL 529
  GI50: > 100 µM (inactive)
HOP-18
  GI50: > 100 µM (inactive)

## COc1ccc2c(c1)CCc1c(-c3n[nH]c4c3CCc3cc(OC)ccc3-4)n[nH]c1-2
M19-MEL
  GI50: 33 µM (inactive)
XF498
  GI50: 32.8 µM (inactive)
SNB-78
  GI50: 44.1 µM (inactive)
DLD-1
  GI50: 54.5 µM (inactive)
DMS-273
  GI50: 17.4 µM (inactive)
LXFL 529
  GI50: 33.1 µM (inactive)
HOP-18
  GI50: 25.8 µM (inactive)

## O=[N+]([O-])c1nccn1CC(O)c1ccc(F)cc1 (stereo unspecified)
M19-MEL
  GI50: > 100 µM (inactive)
XF498
  GI50: > 100 µM (inactive)
RXF 631
  GI50: > 100 µM (inactive)
DMS-273
  GI50: > 100 µM (inactive)
LXFL 529
  GI50: > 100 µM (inactive)
HOP-18
  GI50: > 100 µM (inactive)

## O=C(Sc1sc(=S)sc1SC(=O)c1ccccc1)c1ccccc1
M19-MEL
  GI50: 21.7 µM (inactive)
XF498
  GI50: 55.2 µM (inactive)
SNB-78
  GI50: > 100 µM (inactive)
DMS-273
  GI50: 53 µM (inactive)
LXFL 529
  GI50: > 100 µM (inactive)
HOP-18
  GI50: > 100 µM (inactive)

## CO/N=C(\C)c1ccc(Nc2nc3ccccc3c3occc23)cc1
Hs-578T
  GI50: 12.5 µM (inactive)

## COCC(OC)C(CC=C(C#N)C#N)OC (stereo unspecified)
M19-MEL
  GI50: > 100 µM (inactive)
XF498
  GI50: > 100 µM (inactive)
SNB-78
  GI50: > 100 µM (inactive)
DMS-273
  GI50: > 100 µM (inactive)
LXFL 529
  GI50: > 100 µM (inactive)

## CC(C)(O)[C@@H]1CCC(C)([C@H]2[C@@H](O)CC3(C)C4CC(OC5OC(CO)C(O)C(O)C5O)C5C(C)(C)[C@@H](OC6OCC(O)C(O)C6O)CC[C@@]56C[C@@]46CC[C@]23C)O1 (stereo partly specified)
M19-MEL
  GI50: > 100 µM (inactive)
XF498
  GI50: > 100 µM (inactive)
SNB-78
  GI50: > 100 µM (inactive)
DLD-1
  GI50: > 100 µM (inactive)
DMS-273
  GI50: > 100 µM (inactive)
LXFL 529
  GI50: > 100 µM (inactive)
HOP-18
  GI50: > 100 µM (inactive)

## Cn1c(=O)nc2n(-c3cccc(Br)c3)c3ccccc3nc-2c1=O
M19-MEL
  GI50: 1.43 µM (inactive)
XF498
  GI50: 5.36 µM (inactive)
SNB-78
  GI50: 12.2 µM (inactive)
DLD-1
  GI50: 5.41 µM (inactive)
DMS-273
  GI50: 3.1 µM (inactive)
LXFL 529
  GI50: 6.1 µM (inactive)
HOP-18
  GI50: 5.9 µM (inactive)

## CCN(CC)CCNc1ccc2nnn3c4ccc(OC)cc4c(=O)c1c23
M19-MEL
  GI50: 13.5 µM (inactive)
SNB-78
  GI50: 10.7 µM (inactive)
RXF 631
  GI50: 3.83 µM (inactive)
DLD-1
  GI50: 5.05 µM (inactive)
LXFL 529
  GI50: 9.62 µM (inactive)
HOP-18
  GI50: 0.507 µM (active)

## O=NN(CCCl)C(=O)NCCCl [CARMUSTINE]
M19-MEL
  GI50: 77.6 µM (inactive)
Hs-578T
  GI50: 103 µM (inactive)
XF498
  GI50: 68.1 µM (inactive)
SNB-78
  GI50: 88.9 µM (inactive)
RXF 631
  GI50: 80.2 µM (inactive)
DLD-1
  GI50: 76.6 µM (inactive)
DMS-273
  GI50: 74 µM (inactive)
LXFL 529
  GI50: 71.4 µM (inactive)
HOP-18
  GI50: 91.4 µM (inactive)
